Experimental data from publication PMC10343781, “Effect of Linker Elongation on the VGSC Affinity and Anticonvulsant Activity among 4-Alkyl-5-aryl-1,2,4-triazole-3-thione Derivatives” (Molecules, 2023).
Read-outs that look alike come from different tables or passages of the source.

Experiments:
[1] = biological target: Na+ channel (site 2), batrachotoxin-binding sites of VGSCs; conditions: cited from earlier work
[2] = system: maximal electroshock-induced tonic-clonic seizures in mice; assay: Maximal electroshock-induced seizure (MES) test; format: in vivo; conditions: Mus musculus, ip, read-out: ED50 ± SEM, anticonvulsant activity (MES test)
Protocol: As the sodium channel ligands are recognized as antiepileptic agents and the affinity of 3 and 4 against VGSCs was still in the beneficial range, the investigated 1,2,4-triazole derivatives were examined for their antiepileptic potential using in the vivo model of tonic–clonic seizures in mice. The protective effect of compounds 3 and 4 against maximal electroshock-induced seizures (MES) was evaluated in a wide range of doses (producing 0% to 100% protection) that enabled us to calculate corresponding ED50 values.
Anticonvulsant activity of the investigated compounds was determined according to the same procedure as described in [11, 15, 18]. Adult albino mice weighing 20–25 g were used in the experiment. The animals were randomly divided into groups of 8 mice and kept in colony cages with free access to water and food. Test compounds were administered intraperitoneally, suspended in a 1% solution of Tween 80 in distilled water in a volume of 5 mL/kg. Electroconvulsions were produced with alternating current (0.2 s stimulus duration; 500 V, 50 Hz, 25 mA constant current) delivered through ear clip electrodes by a type 221 rodent shock generator (Hugo Sachs Elektronik, Freiburg, Germany). Absence of tonic extension of the hind limb was assumed as the criterion of anticonvulsant activity. ED50 values were calculated using Litchfield and Wilcoxon’s log-probit method.

[3] = biological target: Na+ channel (site 2), batrachotoxin-binding sites of VGSCs; conditions: [3H]batrachotoxin displacement, rat cerebral cortex membranes, 8 concentrations 0.1-300 µM; read-out: Na+ Channel (Site 2) Affinity IC50 ± SEM
[4] = system: motor coordination of mice; assay: Rotarod test (acute neurotoxicity); conditions: i.p.
Protocol: Additionally, their possible acute neurotoxic effects were evaluated in the rotarod test.
Acute neurotoxicity of the compounds obtained after i.p. administration was tested in mice using the rotarod test according to the methodology described earlier [37].

[5] = system: maximal electroshock-induced tonic-clonic seizures in mice; design: method as in PMID 30594731; conditions: cited from earlier work

SMILES | ED50 ([2]; pretreatment time 15 min) | ED50 ([2]; pretreatment time 30 min) | ED50 ([2]; pretreatment time 60 min) | ED50 ([2]; pretreatment time 120 min) | melting point | IC50 [3] | PI (TD50/ED50) ([4]; pretreatment time 15 min) | PI (TD50/ED50) ([4]; pretreatment time 30 min) | PI (TD50/ED50) ([4]; pretreatment time 60 min) | PI (TD50/ED50) ([4]; pretreatment time 120 min) | other results
CCCCn1c(Cc2cccc(Cl)c2)n[nH]c1=S [Compound 1] |  |  |  |  |  |  |  |  |  |  | IC50 ([1]; Figure 1, methylene-linker 3-chlorophenyl analogs, read-out: IC50 (VGSC affinity)): 15.8 µM
CCCCCCn1c(Cc2cccc(Cl)c2)n[nH]c1=S [Compound 2, 5-(3-chlorobenzyl)-4-hexyl-1,2,4-triazole-3-thione] |  |  |  |  |  |  |  |  |  |  | IC50 ([1]; read-out: IC50 (blocked the VGSCs)): 6.17 µM
CCCCn1c(CCc2cccc(Cl)c2)n[nH]c1=S [Compound 3, 4-Butyl-5-[2-(3-chlorophenyl)ethyl]-2,4-dihydro-3H-1,2,4-triazole-3-thione] | 139 ± 31.4 mg/kg | 96.6 ± 14.8 mg/kg | 148 ± 17.1 mg/kg | 195 ± 18.9 mg/kg | 102 to 104 °C | 11.9 ± 0.4 µM | 2.4 | 3.4 | 2.3 | 1.7 | 
CCCCCCn1c(CCc2cccc(Cl)c2)n[nH]c1=S [Compound 4, 5-[2-(3-Chlorophenyl)ethyl]-4-hexyl-2,4-dihydro-3H-1,2,4-triazole-3-thione] | 115 ± 7.6 mg/kg | 129 ± 21.1 mg/kg | 215 ± 21.1 mg/kg | 255 ± 22.5 mg/kg | 84 to 86 °C | 18.9 ± 0.3 µM | 6.2 | 5.3 | 3.2 | 1.9 | median toxic doses (TD50) in the rotarod test ([4]; pretreatment time not stated, highest value of the series): ≤ 710.5 mg/kg
CCCC(CCC)C(=O)O [Valproate] |  |  |  |  |  |  |  |  |  |  | ED50 ± SEM, anticonvulsant activity (MES test) ([5]; pretreatment time 15 min): 189.0 ± 17.3 mg/kg; ED50 ± SEM, anticonvulsant activity (MES test) ([5]; pretreatment time 30 min): 216.9 ± 9.4 mg/kg; ED50 ± SEM, anticonvulsant activity (MES test) ([5]; pretreatment time 60 min): 218.4 ± 18.9 mg/kg; ED50 ± SEM, anticonvulsant activity (MES test) ([5]; pretreatment time 120 min): 246.6 ± 21.4 mg/kg
COc1ccc(C(=O)O[C@H]2CC[C@@]3(C)[C@@H]4CC[C@H]5[C@]6(O)C[C@H](O)[C@@]7(O)[C@@H](CN8C[C@@H](C)CC[C@H]8[C@@]7(C)O)[C@]6(O)C[C@@]53O[C@]24O)cc1OC [Veratridine, reference compound] |  |  |  |  |  | 17.8 ± 0.9 µM |  |  |  |  | 
